Data reported in patent US9365522B2, “Pyrazole amide derivative” (AMGEN INC., priority 2015, dated 2016).

Molecular target: T1, ligand binding domain of human ROR gamma (Homo sapiens, UniProt P51449)
T1 construct: NM_001001523; expressed in transfected cells; host or cells: HEK293T
T1 sequence (P51449 247-497 isoform P51449-2): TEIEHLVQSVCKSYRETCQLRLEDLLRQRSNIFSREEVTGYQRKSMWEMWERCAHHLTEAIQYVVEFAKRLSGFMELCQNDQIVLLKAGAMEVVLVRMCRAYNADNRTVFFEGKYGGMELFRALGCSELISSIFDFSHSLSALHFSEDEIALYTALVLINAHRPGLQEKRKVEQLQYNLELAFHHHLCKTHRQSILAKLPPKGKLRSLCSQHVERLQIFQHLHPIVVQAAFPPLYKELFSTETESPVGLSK
Assay: ROR gamma reporter gene assay (GAL4-RORγ LBD luciferase, Dual-Glo)
Format: cell-based
Conditions: HEK293T cells transfected with pM-ROR gamma, 8 concentrations 3.5 nM to 10.5 μM, 24 h incubation; read-out: result (pIC50, inhibition of RORγ transcriptional activity) (converted)
Procedure, shortened: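 First, HEK293T cells are transfected with the GAL4–RORγ LBD construct, a 5×UAS luciferase reporter and a constitutive renilla control. Next, test compounds are added over eight concentrations (3.5 nM to 10.5 μM). After 24 h at 37 °C, Dual-Glo luminescence is measured and pIC50 fitted.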

**Q.** With `COc1cccc(Cl)c1C(=O)CN(C(=O)c1cnn([C@H]2CC[C@](C)(C(=O)O)CC2)c1C(F)(F)F)[C@H]1C[C@@H]2[C@H](C1)C2(C)C` [Example 232, trans-4-(4-((2-(2-chloro-6-methoxyphenyl)-2-oxoethyl)-((1R,3r,5S)-6,6-dimethyl-3-bicyclo(3.1.0)hexanyl)carbamoyl)-5-(trifluoromethyl)pyrazol-1-yl)-1-methylcyclohexane-1-carboxylic acid] as the molecule, how does the IC50 read?
**A.** 17000 pM

**Q.** For `CC(C)(C)CN(CC(=O)c1c(Cl)cncc1Cl)C(=O)c1cnn(C23CCC(C(=O)O)(CC2)CC3)c1C(F)(F)F` [Example 233, 4-(4-((2-(3,5-dichloropyridin-4-yl)-2-oxoethyl)-(2,2-dimethylpropyl)carbamoyl)-5-(trifluoromethyl)pyrazol-1-yl)bicyclo[2.2.2]octane-1-carboxylic acid], which IC50 is on record?
**A.** 15800 pM

**Q.** `C[C@]1(C(=O)O)CC[C@H](n2ncc(C(=O)N(CC(=O)c3c(Cl)cc(Cl)cc3Cl)CC3CC4(CC4)C3)c2C(F)(F)F)CC1` [Example 234, trans-4-(4-((2-oxo-2-(2,4,6-trichlorophenyl)ethyl)-(spiro[2.3]hexan-5-ylmethyl)carbamoyl)-5-(trifluoromethyl)pyrazol-1-yl)-1-methylcyclohexane-1-carboxylic acid] was tested. Which IC50 did it give?
**A.** 10000 pM

**Q.** Which IC50 does the source give for `C[C@]1(C(=O)O)CC[C@H](n2ncc(C(=O)N(CC(=O)c3c(Cl)cccc3C(F)(F)F)CC3CC4(CC4)C3)c2C(F)(F)F)CC1` [Example 235, trans-4-(4-((2-(2-chloro-6-(trifluoromethyl)phenyl)-2-oxoethyl)-(spiro[2.3]hexan-5-ylmethyl)carbamoyl)-5-(trifluoromethyl)pyrazol-1-yl)-1-methylcyclohexane-1-carboxylic acid] here?
**A.** 13200 pM

**Q.** Which IC50 does the source give for `Cc1cc(Cl)c(C(=O)CN(C(=O)c2cnn(C34CCC(C(=O)O)(CC3)CC4)c2C(F)(F)F)C2CCC(C)(C)CC2)c(Cl)c1` [Example 236, 4-(4-((2-(2,6-dichloro-4-methylphenyl)-2-oxoethyl)-(4,4-dimethylcyclohexyl)carbamoyl)-5-(trifluoromethyl)pyrazol-1-yl)bicyclo[2.2.2]octane-1-carboxylic acid] here?
**A.** 10500 pM

**Q.** With `Cc1cc(Cl)c(C(=O)CN(CC2CC(C)(C)C2)C(=O)c2cnn(C34CCC(C(=O)O)(CC3)CC4)c2C(F)(F)F)c(Cl)c1` [Example 237, 4-(4-((2-(2,6-dichloro-4-methylphenyl)-2-oxoethyl)-((3,3-dimethylcyclobutyl)methyl)carbamoyl)-5-(trifluoromethyl)pyrazol-1-yl)bicyclo[2.2.2]octane-1-carboxylic acid] as the molecule, how does the IC50 read?
**A.** < 3470 pM

**Q.** How did the IC50 turn out when `Cc1cc(Cl)c(C(=O)CN(CC2CC(C)(C)C2)C(=O)c2cnn([C@H]3CC[C@](C)(C(=O)O)CC3)c2C(F)(F)F)c(Cl)c1` [Example 238, trans-4-(4-((2-(2,6-dichloro-4-methylphenyl)-2-oxoethyl)-((3,3-dimethylcyclobutyl)methyl)carbamoyl)-5-(trifluoromethyl)pyrazol-1-yl)-1-methylcyclohexane-1-carboxylic acid] was run?
**A.** 4370 pM

**Q.** Which IC50 does the source give for `CC1(C)CCC(CN(CC(=O)c2c(Cl)cc(Cl)cc2Cl)C(=O)c2cnn([C@H]3CC[C@](C)(C(=O)O)CC3)c2C(F)(F)F)CC1` [Example 239, trans-4-(4-((4,4-dimethylcyclohexyl)methyl-(2-oxo-2-(2,4,6-trichlorophenyl)ethyl)carbamoyl)-5-(trifluoromethyl)pyrazol-1-yl)-1-methylcyclohexane-1-carboxylic acid] here?
**A.** < 3470 pM

**Q.** `CC1(C)[C@@H]2C[C@H](N(CC(=O)c3c(Cl)cc(F)cc3Cl)C(=O)c3cnn(C45CCC(C(=O)O)(CC4)CC5)c3C(F)(F)F)C[C@@H]21` [Example 240, 4-(4-((2-(2,6-dichloro-4-fluorophenyl)-2-oxoethyl)-((1R,3r,5S)-6,6-dimethyl-3-bicyclo[3.1.0]hexanyl)carbamoyl)-5-(trifluoromethyl)pyrazol-1-yl)bicyclo(2.2.2)octane-1-carboxylic acid] was tested. Which IC50 did it give?
**A.** 5500 pM

**Q.** Which IC50 does the source give for `CC1(C)[C@@H]2C[C@H](N(CC(=O)c3c(Cl)cc(Cl)cc3Cl)C(=O)c3cnn(C45CCC(C(=O)O)(CC4)CC5)c3C(F)(F)F)C[C@@H]21` [Example 241, 4-(4-(((1R,3r,5S)-6,6-dimethyl-3-bicyclo[3.1.0]hexanyl)-(2-oxo-2-(2,4,6-trichlorophenyl)ethyl)carbamoyl)-5-(trifluoromethyl)pyrazol-1-yl)bicyclo(2.2.2)octane-1-carboxylic acid] here?
**A.** 5130 pM

**Q.** For `CC1(C)CCC(N(CC(=O)c2c(Cl)cccc2C(F)(F)F)C(=O)c2cnn(C34CCC(C(=O)O)(CC3)CC4)c2C(F)(F)F)CC1` [Example 242, 4-(4-((2-(2-chloro-6-(trifluoromethyl)phenyl)-2-oxoethyl)-(4,4-dimethylcyclohexyl)carbamoyl)-5-(trifluoromethyl)pyrazol-1-yl)bicyclo[2.2.2]octane-1-carboxylic acid], which IC50 is on record?
**A.** 31600 pM

**Q.** `COc1cccc(Cl)c1C(=O)CN(C(=O)c1cnn(C23CCC(C(=O)O)(CC2)CC3)c1C(F)(F)F)C1CCC(C)(C)CC1` [Example 243, 4-(4-((2-(2-chloro-6-methoxyphenyl)-2-oxoethyl)-(4,4-dimethylcyclohexyl)carbamoyl)-5-(trifluoromethyl)pyrazol-1-yl)bicyclo[2.2.2]octane-1-carboxylic acid] was tested. Which IC50 did it give?
**A.** 55000 pM

**Q.** For `CC12CCC(CN(CC(=O)c3c(Cl)cc(F)cc3Cl)C(=O)c3cnn([C@H]4CC[C@](C)(C(=O)O)CC4)c3C(F)(F)F)(CC1)O2` [Example 244, trans-4-(4-((2-(2,6-dichloro-4-fluorophenyl)-2-oxoethyl)-((1-methyl-7-oxabicyclo[2.2.1]heptan-4-yl)methyl)carbamoyl)-5-(trifluoromethyl)pyrazol-1-yl)-1-methylcyclohexane-1-carboxylic acid], which IC50 is on record?
**A.** 6920 pM

**Q.** `CC(C)(C)CN(CC(=O)c1c(Cl)cc(F)cc1Cl)C(=O)c1cnn(C23CCC(C(=O)O)(CC2)CC3)c1C(F)(F)F` [Example 245, 4-(4-((2-(2,6-dichloro-4-fluorophenyl)-2-oxoethyl)-(2,2-dimethylpropyl)carbamoyl)-5-(trifluoromethyl)pyrazol-1-yl)bicyclo[2.2.2]octane-1-carboxylic acid] was tested. Which IC50 did it give?
**A.** 8910 pM

**Q.** With `CC(C)(C)CN(CC(=O)c1c(Cl)cc(Cl)cc1Cl)C(=O)c1cnn(C23CCC(C(=O)O)(CC2)CC3)c1C(F)(F)F` [Example 246, 4-(4-(2,2-dimethylpropyl-(2-oxo-2-(2,4,6-trichlorophenyl)ethyl)carbamoyl)-5-(trifluoromethyl)pyrazol-1-yl)bicyclo[2.2.2]octane-1-carboxylic acid] as the molecule, how does the IC50 read?
**A.** 11500 pM

**Q.** Which IC50 does the source give for `CC1(C)[C@@H]2C[C@H](N(CC(=O)c3c(Cl)cccc3C(F)(F)F)C(=O)c3cnn(C45CCC(C(=O)O)(CC4)CC5)c3C(F)(F)F)C[C@@H]21` [Example 247, 4-(4-((2-(2-chloro-6-(trifluoromethyl)phenyl)-2-oxoethyl)-((1R,3r,5S)-6,6-dimethyl-3-bicyclo[3.1.0]hexanyl)carbamoyl)-5-(trifluoromethyl)pyrazol-1-yl)bicyclo[2.2.2]octane-1-carboxylic acid] here?
**A.** 32400 pM

**Q.** With `COc1cccc(Cl)c1C(=O)CN(C(=O)c1cnn(C23CCC(C(=O)O)(CC2)CC3)c1C(F)(F)F)[C@H]1C[C@@H]2[C@H](C1)C2(C)C` [Example 248, 4-(4-((2-(2-chloro-6-methoxyphenyl)-2-oxoethyl)-((1R,3r,5S)-6,6-dimethyl-3-bicyclo[3.1.0]hexanyl)carbamoyl)-5-(trifluoromethyl)pyrazol-1-yl)bicyclo[2.2.2]octane-1-carboxylic acid] as the molecule, how does the IC50 read?
**A.** 21400 pM

**Q.** `CC1(C)CC(CN(CC(=O)c2c(Cl)cc(F)cc2Cl)C(=O)c2cnn([C@H]3CC[C@](C)(C(=O)O)CC3)c2C(F)(F)F)C1` [Example 249, trans-4-(4-((2-(2,6-dichloro-4-fluorophenyl)-2-oxoethyl)-((3,3-dimethylcyclobutyl)methyl)carbamoyl)-5-(trifluoromethyl)pyrazol-1-yl)-1-methylcyclohexane-1-carboxylic acid] was tested. Which IC50 did it give?
**A.** < 3470 pM

**Q.** For `CC1(C)CC(CN(CC(=O)c2c(Cl)cc(Cl)cc2Cl)C(=O)c2cnn([C@H]3CC[C@](C)(C(=O)O)CC3)c2C(F)(F)F)C1` [Example 250, trans-4-(4-((3,3-dimethylcyclobutyl)methyl-(2-oxo-2-(2,4,6-trichlorophenyl)ethyl)carbamoyl)-5-(trifluoromethyl)pyrazol-1-yl)-1-methylcyclohexane-1-carboxylic acid], which IC50 is on record?
**A.** < 3470 pM

**Q.** `CC1(C)CC(CN(CC(=O)c2c(Cl)cccc2C(F)(F)F)C(=O)c2cnn([C@H]3CC[C@](C)(C(=O)O)CC3)c2C(F)(F)F)C1` [Example 251, trans-4-(4-((2-(2-chloro-6-(trifluoromethyl)phenyl)-2-oxoethyl)-((3,3-dimethylcyclobutyl)methyl)carbamoyl)-5-(trifluoromethyl)pyrazol-1-yl)-1-methylcyclohexane-1-carboxylic acid] was tested. Which IC50 did it give?
**A.** 6030 pM

**Q.** Which IC50 does the source give for `COc1cccc(Cl)c1C(=O)CN(CC1CC(C)(C)C1)C(=O)c1cnn([C@H]2CC[C@](C)(C(=O)O)CC2)c1C(F)(F)F` [Example 252, trans-4-(4-((2-(2-chloro-6-methoxyphenyl)-2-oxoethyl)-((3,3-dimethylcyclobutyl)methyl)carbamoyl)-5-(trifluoromethyl)pyrazol-1-yl)-1-methylcyclohexane-1-carboxylic acid] here?
**A.** 10000 pM
